Laboratory results reported in ChEMBL document CHEMBL1201862, “PubChem BioAssay data set” (2004).
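Protocol summary: plate cells (96-well), add compound at 5 concentrations, incubate 48 h, interpolate endpoints linearly. The concentration for 50% growth inhibition is given as GI50.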 Activity calls are given as the source filed them. Cut-off read from the data, not from the text of the source: active = GI50 up to about 1.1 µM and inactive = higher.

Experiments:
Assay in all cases: NCI anticancer screen, dose series, 48 h
[1] = system: SW-620
[2] = system: RXF 393
[3] = system: HL-60
[4] = system: SF-539
[5] = system: SNB-75
[6] = system: NCI-H226
[7] = system: ACHN
[8] = system: HCC 2998
[9] = system: A549
[10] = system: MDA-MB-435
[11] = system: OVCAR-3
[12] = system: MDA-MB-231
[13] = system: NCI-H23
[14] = system: SK-MEL-2
[15] = system: UO-31
[16] = system: SN12C
[17] = system: IGROV-1
[18] = system: TK-10
[19] = system: SF-295
[20] = system: CCRF-CEM
[21] = system: OVCAR-5
[22] = system: Malme-3M
[23] = system: SK-MEL-5
[24] = system: A498
[25] = system: NCI/ADR-RES
[26] = system: HT-29
[27] = system: 786-0
[28] = system: HOP-62
[29] = system: RPMI-8226
[30] = system: PC-3
[31] = system: OVCAR-8
[32] = system: SF-268
[33] = system: EKVX
[34] = system: COLO 205
[35] = system: SNB-19
[36] = system: LOX IMVI
[37] = system: NCI-H522
[38] = system: K562
[39] = system: UACC-62
[40] = system: M14
[41] = system: MOLT-4
[42] = system: U-251
[43] = system: Hs-578T
[44] = system: SK-OV-3
[45] = system: SK-MEL-28
[46] = system: MDA-N
[47] = system: DU-145
[48] = system: HOP-92
[49] = system: KM12
[50] = system: MCF7
[51] = system: CAKI-1
[52] = system: HCT-15
[53] = system: UACC-257
[54] = system: OVCAR-4
[55] = system: BT-549
[56] = system: NCI-H460
[57] = system: HCT-116

In the case of CC(=O)Oc1c(OC(C)C)cc(=O)n2ccsc12, the GI50 [1] is reported as 82 µM (inactive), the GI50 [2] is reported as > 100 µM (inactive) and the GI50 [3] is reported as 18.5 µM (inactive). For the same compound, the GI50 [4] was > 100 µM (inactive), the GI50 [5] was > 100 µM (inactive) and the GI50 [6] was > 100 µM (inactive). For the same compound, the GI50 [7] was > 100 µM (inactive), the GI50 [8] was > 100 µM (inactive) and the GI50 [9] was > 100 µM (inactive). The GI50 [10] was 17.3 µM (inactive), the GI50 [11] was 78.2 µM (inactive) and the GI50 [12] was > 100 µM (inactive). For the same compound, the GI50 [13] was > 100 µM (inactive), the GI50 [14] was > 100 µM (inactive) and the GI50 [15] was > 100 µM (inactive). The GI50 [16] was > 100 µM (inactive), the GI50 [17] was 92.7 µM (inactive) and the GI50 [18] was > 100 µM (inactive). The GI50 [19] was > 100 µM (inactive), the GI50 [20] was 16.1 µM (inactive) and the GI50 [21] was > 100 µM (inactive). For the same compound, the GI50 [22] was > 100 µM (inactive), the GI50 [23] was 62.8 µM (inactive) and the GI50 [24] was > 100 µM (inactive). The GI50 [25] was > 100 µM (inactive), the GI50 [26] was > 100 µM (inactive) and the GI50 [27] was > 100 µM (inactive). The GI50 [28] was > 100 µM (inactive), the GI50 [29] was 29.4 µM (inactive) and the GI50 [30] was > 100 µM (inactive). The GI50 [31] was > 100 µM (inactive), the GI50 [32] was > 100 µM (inactive) and the GI50 [33] was > 100 µM (inactive). The GI50 [34] was 30.1 µM (inactive), the GI50 [35] was > 100 µM (inactive) and the GI50 [36] was > 100 µM (inactive). For the same compound, the GI50 [37] was 42.2 µM (inactive), the GI50 [38] was 42.8 µM (inactive) and the GI50 [39] was > 100 µM (inactive). For the same compound, the GI50 [40] was > 100 µM (inactive), the GI50 [41] was 43.9 µM (inactive) and the GI50 [42] was > 100 µM (inactive). For the same compound, the GI50 [43] was > 100 µM (inactive), the GI50 [44] was > 100 µM (inactive) and the GI50 [45] was > 100 µM (inactive). The GI50 [46] was > 100 µM (inactive), the GI50 [47] was > 100 µM (inactive) and the GI50 [48] was > 100 µM (inactive). The GI50 [49] was > 100 µM (inactive), the GI50 [50] was 52.6 µM (inactive) and the GI50 [51] was > 100 µM (inactive). The GI50 [52] was > 100 µM, the GI50 [53] was > 100 µM (inactive) and the GI50 [54] was > 100 µM (inactive). For the same compound, the GI50 [55] was > 100 µM (inactive), the GI50 [56] was > 100 µM (inactive) and the GI50 [57] was > 100 µM (inactive).
